How the values were obtained:
[1] = system: S. typhimurium TA 1535; test: Oxygen uptake of S. typhimurium TA 1535 cultures in minimal histidine medium, oxygen electrode (mutagen screening); assay type: cell-based, Salmonella typhimurium; conditions: flasks 3 and 4
Source text: In the device illustrated in FIG. 1, two conventional oxygen electrodes, 10, 11, of the Clark type are employed. […] Electrode 11, designated the test electrode, measures the respiration rate (O2 uptake) of the same fixed volume 13 and concentration of Ames test bacteria and media as the control electrode. In the second case, the media also contains the chemical to be evaluated. If the chemical is a carcinogen or mutagen, the O2 uptake of test electrode 11 will increase at a faster rate than that of the control. This occurs because the reversion rate, and thus the growth rate and O2 consumption rate will be higher in the test electrode 11 than in the control electrode 10. Conversely, if the chemical is not a carcinogen or a mutagen, the O2 uptake rates will be similar. Thus, by measuring the difference in O2 uptake rates between a control and a test electrode, the potential carcinogenicity and/or mutagenicity of a chemical can be evaluated. […]
The test organism, S. typhimurium TA 1535 is grown overnight, washed three times in phosphate buffer and resuspended to give OD of 0.8 (>10^8 per ml). […] At zero, four, and 32 hours, 1 ml of culture is added to 2 ml of aerated minimal glucose media in the test chamber of an oxygen electrode and the rate of oxygen uptake is measured.

[2] = system: S. typhimurium TA 1530; conditions: cited from earlier work
[3] = system: Saccharomyces cerevsiae; conditions: cited from earlier work
[4] = system: oxidative phosphorylation; conditions: cited from earlier work; for uncoupling: higher concentrations than 10^-9 M; for stimulation of respiration and ATP production: low concentrations (10^-9 M)

Compound: Nc1c2ccccc2nc2ccccc12 [9-amine acridine]
- oxygen uptake, dependence on mutagen level [1]: dependent upon the level of the added known mutagen

Compound: O=C(O)[C@@H]1CCN1 [L-azetidine carboxylic acid]
- toxicity to mutant form ([2]; mutant form of S. typhimurium TA 1530): not toxic to its mutant form
- toxicity to normal form ([2]; normal form of S. typhimurium TA 1530): toxic to the normal form

Compound: NC(N)=NOCC[C@H](N)C(=O)O.O=S(=O)(O)O [cavanine sulfate]
- toxicity to mutant form ([3]; mutant form of yeast): not to its mutant form
- toxicity to normal form ([3]; normal form of yeast): toxic to the normal form

Compound: N[C@@H](Cc1cc(I)c(Oc2cc(I)c(O)c(I)c2)c(I)c1)C(=O)O [thyroxine]
- uncoupling [4]: uncouple at higher concentrations
- stimulation of respiration and ATP production [4]: stimulate respiration and ATP production

Compound: N[C@@H](Cc1cc(I)c(Oc2ccc(O)c(I)c2)c(I)c1)C(=O)O [triiodothyronine]
- uncoupling [4]: uncouple at higher concentrations
- stimulation of respiration and ATP production [4]: stimulate respiration and ATP production

Reference: US4256832A, “Carcinogen and mutagen screening method and apparatus” (BioResearch Inc., priority 1978, dated 1981)
